From ChEMBL document CHEMBL4673266, “Sulfonamide antibiotics inhibit RNAi by binding to human Argonaute protein 2 PAZ” (Bioorg Med Chem Lett, 2020)
The source made the active and inactive calls. No cut-off for these calls is given here.

Tests used:
[1] = biological target: T1, Protein argonaute-2 (Homo sapiens, UniProt Q9UKV8); assay: Binding affinity to human Argonaut protein 2 PAZ domain assessed as change in entropy by isothermal titration microcalorimetry
[2] = system: HeLa; assay: Inhibition of RNAi in human Hela cells expressing Renilla/firefly luciferase genes and siRNA assessed as siRNA-mediated gene silencing activity at 100 to 500 nM by dual luciferase assay relative to control; format: cell-based; details: dose 100-500 nM
[3] = biological target: T1, Protein argonaute-2; assay: Binding affinity to human Argonaut protein 2 PAZ domain assessed as association constant by using isothermal titration microcalorimetry
[4] = biological target: T1, Protein argonaute-2; assay: Binding affinity to human Argonaut protein 2 PAZ domain assessed as change in enthalpy by isothermal titration microcalorimetry
[5] = biological target: T1, Protein argonaute-2; assay: Binding affinity to human Argonaut protein 2 PAZ domain assessed as dissociation constant by using isothermal titration microcalorimetry
[6] = system: HeLa; assay: Inhibition of RNAi in human Hela cells expressing Renilla/firefly luciferase genes and siRNA assessed as siRNA-mediated gene silencing activity at 500 nM by dual luciferase assay relative to control; format: cell-based

T1 sequence (Q9UKV8 whole entry, the tested form may be a part): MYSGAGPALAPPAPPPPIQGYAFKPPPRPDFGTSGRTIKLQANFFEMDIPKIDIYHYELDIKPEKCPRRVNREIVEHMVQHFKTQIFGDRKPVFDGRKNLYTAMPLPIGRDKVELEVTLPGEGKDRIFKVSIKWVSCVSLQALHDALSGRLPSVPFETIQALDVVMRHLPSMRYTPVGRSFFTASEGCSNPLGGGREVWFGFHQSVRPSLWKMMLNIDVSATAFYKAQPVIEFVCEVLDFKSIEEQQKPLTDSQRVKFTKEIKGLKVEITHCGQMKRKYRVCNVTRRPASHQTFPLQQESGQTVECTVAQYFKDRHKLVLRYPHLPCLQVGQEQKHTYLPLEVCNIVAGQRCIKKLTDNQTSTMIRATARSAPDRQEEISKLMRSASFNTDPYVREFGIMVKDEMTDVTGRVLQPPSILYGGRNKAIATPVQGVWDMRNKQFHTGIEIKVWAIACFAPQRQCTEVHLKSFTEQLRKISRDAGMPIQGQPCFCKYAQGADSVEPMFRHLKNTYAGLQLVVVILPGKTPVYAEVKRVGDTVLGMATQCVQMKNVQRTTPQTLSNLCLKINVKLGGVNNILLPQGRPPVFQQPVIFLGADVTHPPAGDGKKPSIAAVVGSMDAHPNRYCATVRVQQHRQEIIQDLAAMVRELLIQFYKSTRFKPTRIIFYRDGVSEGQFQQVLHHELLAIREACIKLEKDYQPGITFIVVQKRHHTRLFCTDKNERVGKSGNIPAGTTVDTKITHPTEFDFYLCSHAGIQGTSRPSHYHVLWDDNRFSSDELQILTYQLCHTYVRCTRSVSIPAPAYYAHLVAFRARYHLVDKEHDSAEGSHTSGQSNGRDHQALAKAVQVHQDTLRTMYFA

| SMILES | deltaS [1] [cal/mol.K] | inhibition [2] | Ka [3] | deltaH [4] [kcal/mol] | Kd [5] [µM] | inhibition [6] |
| --- | --- | --- | --- | --- | --- | --- |
| N=C(N)NS(=O)(=O)c1ccc(N)cc1 | 15.6 | inactive | 2 10^4/M | -1.5 | – | – |
| Nc1ccc(S(N)(=O)=O)cc1 | 15.7 | inactive | – | – | – | – |
| [H]/N=C(/N)NS(=O)(=O)c1ccc(N)cc1 [SULFAGUANIDINE] | – | – | – | – | 49 | – |
| O=c1ccn([C@@H]2O[C@H](COP(=O)(O)O)[C@@H](O)[C@H]2O)c(=O)[nH]1 | 18.2 | – | 6.6 10^4/M | -0.9 | – | – |
| Cc1cc(NS(=O)(=O)c2ccc(N)cc2)nc(C)n1 [SULFISOMIDINE] | 19.2 | Dose-dependent effect | 23 10^4/M | -1.5 | 4.3 | Active |
